Active and inactive are the calls of the source. Rule as the data show it: actives have a measured IC50 and inactives only a lower limit.
Experiments:
[1] = target: T1, Apoptotic protease-activating factor 1 (Homo sapiens, UniProt O14727); type: functional
T1 sequence (O14727 whole entry): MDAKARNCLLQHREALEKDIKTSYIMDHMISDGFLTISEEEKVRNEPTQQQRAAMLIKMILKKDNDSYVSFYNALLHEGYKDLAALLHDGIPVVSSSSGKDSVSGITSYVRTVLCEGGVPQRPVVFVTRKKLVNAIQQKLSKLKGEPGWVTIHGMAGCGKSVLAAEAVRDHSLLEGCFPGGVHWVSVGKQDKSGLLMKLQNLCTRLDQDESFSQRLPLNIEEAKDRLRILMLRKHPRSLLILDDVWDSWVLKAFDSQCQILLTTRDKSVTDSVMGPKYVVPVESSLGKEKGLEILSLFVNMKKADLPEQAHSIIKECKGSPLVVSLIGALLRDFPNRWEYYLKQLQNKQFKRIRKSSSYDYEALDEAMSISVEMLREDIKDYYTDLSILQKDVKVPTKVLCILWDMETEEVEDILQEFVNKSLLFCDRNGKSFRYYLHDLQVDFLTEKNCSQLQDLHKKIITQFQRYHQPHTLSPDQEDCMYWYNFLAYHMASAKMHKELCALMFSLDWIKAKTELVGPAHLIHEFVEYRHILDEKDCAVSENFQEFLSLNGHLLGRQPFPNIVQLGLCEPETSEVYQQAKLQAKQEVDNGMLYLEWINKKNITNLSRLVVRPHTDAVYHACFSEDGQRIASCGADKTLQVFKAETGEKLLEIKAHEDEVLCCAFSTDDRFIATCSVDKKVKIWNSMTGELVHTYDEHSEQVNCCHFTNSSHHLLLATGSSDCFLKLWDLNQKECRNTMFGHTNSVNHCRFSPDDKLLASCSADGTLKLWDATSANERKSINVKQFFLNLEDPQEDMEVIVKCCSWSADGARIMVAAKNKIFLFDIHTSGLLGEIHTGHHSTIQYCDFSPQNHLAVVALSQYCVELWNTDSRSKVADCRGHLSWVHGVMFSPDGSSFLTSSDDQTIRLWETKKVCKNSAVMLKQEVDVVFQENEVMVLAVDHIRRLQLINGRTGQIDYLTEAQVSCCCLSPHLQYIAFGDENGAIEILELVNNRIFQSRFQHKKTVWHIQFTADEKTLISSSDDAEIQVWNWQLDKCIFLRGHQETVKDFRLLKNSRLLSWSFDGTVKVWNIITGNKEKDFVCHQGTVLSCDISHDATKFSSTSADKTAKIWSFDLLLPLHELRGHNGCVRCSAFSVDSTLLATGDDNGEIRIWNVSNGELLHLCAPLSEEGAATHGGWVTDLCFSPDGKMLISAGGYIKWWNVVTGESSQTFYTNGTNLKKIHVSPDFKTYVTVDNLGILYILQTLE

[2] = target: T2, Sentrin-specific protease 7 (Homo sapiens, UniProt Q9BQF6); experiment: SENP7 protease inhibitors, SAR follow-up, biochemical, luminescence (AID 504497); type: functional
T2 sequence (Q9BQF6 whole entry): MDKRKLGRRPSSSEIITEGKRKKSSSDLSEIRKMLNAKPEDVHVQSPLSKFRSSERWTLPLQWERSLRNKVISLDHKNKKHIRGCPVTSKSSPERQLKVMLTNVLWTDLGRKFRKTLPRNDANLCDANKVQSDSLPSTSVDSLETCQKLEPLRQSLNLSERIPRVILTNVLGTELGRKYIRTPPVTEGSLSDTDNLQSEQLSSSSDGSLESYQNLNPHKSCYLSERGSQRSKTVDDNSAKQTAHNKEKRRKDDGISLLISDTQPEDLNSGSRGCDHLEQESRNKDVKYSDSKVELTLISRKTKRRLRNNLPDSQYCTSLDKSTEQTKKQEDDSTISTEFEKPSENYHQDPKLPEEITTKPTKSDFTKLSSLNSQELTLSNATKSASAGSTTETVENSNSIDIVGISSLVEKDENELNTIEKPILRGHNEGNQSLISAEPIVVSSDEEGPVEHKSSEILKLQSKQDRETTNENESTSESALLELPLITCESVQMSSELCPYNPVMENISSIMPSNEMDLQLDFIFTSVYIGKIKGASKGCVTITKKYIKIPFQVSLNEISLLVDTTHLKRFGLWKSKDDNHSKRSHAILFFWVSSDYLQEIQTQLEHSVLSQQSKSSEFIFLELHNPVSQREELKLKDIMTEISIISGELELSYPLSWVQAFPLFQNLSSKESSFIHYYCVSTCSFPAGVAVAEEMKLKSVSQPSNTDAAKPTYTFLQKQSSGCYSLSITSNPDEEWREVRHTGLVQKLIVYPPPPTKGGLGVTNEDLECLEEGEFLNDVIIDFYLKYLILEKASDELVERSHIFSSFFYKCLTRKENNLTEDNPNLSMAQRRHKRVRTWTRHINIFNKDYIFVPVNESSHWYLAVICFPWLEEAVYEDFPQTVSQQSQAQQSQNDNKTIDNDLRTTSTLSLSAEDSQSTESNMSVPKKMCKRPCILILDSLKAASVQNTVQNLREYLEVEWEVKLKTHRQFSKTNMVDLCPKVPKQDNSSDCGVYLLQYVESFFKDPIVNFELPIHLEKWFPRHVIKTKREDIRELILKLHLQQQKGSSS

Oc1cccc(/C=N/Nc2cc(N3CCCC3)nc(N3CCCC3)n2)c1
IC50 [1]: 1.84 µM (active)
IC50 [2]: 49.7 µM (active)
